Experimental data as given in PubChem BioAssay (NCI).
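1) Cells in 96-well plates. 2) Compound, 48 h, 5 concentrations. 3) Linear interpolation between surrounding doses. 4) Unreached endpoint = highest concentration. GI50 marks 50% less growth. TGI: total growth inhibition.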

What was measured:
Assay in all cases: inhibition of tumour cell growth, NCI panel, 48 h
[1] = test system: NCI-H23 lung
[2] = test system: RPMI-8226 leukemia
[3] = test system: HT29 colon
[4] = test system: SN12C renal
[5] = test system: HCT-15 colon
[6] = test system: SK-OV-3 ovarian
[7] = test system: HL-60(TB) leukemia
[8] = test system: MDA-MB-435
[9] = test system: MALME-3M melanoma
[10] = test system: TK-10 renal

SMILES | GI50 [1] | TGI [1] | GI50 [2] | TGI [2] | GI50 [3] | TGI [3] | GI50 [4] | TGI [4] | GI50 [5] | TGI [5] | GI50 [6] | TGI [6] | GI50 [7] | TGI [7] | GI50 [8] | TGI [8] | GI50 [9] | TGI [9] | GI50 [10] | TGI [10]
CCOC(=O)Nc1cc(-c2ccc(C)c(NS(C)(=O)=O)c2)nn2c(C)nnc12 | 1.93 µM | 9.16 µM | 0.549 µM | 4.97 µM | 0.809 µM | 14.1 µM | 2.06 µM | 58.5 µM | 1.26 µM | 10.3 µM | 1.21 µM | 5.66 µM | 0.334 µM | 2.71 µM | 1.33 µM | 41.7 µM | 1.11 µM | 41.5 µM | 0.465 µM | 7.36 µM
NCCCCCCCCCn1c2c(c3ccccc3c1=O)C(=O)c1ccccc1-2 | 7.94 µM | 17 µM | 10.4 µM | 30.8 µM | 8.5 µM | 27.1 µM | 8.48 µM | 18.4 µM | 6.03 µM | 16.2 µM | 10.1 µM | 18.7 µM | 7.97 µM | 19.8 µM | 9.52 µM | 19.1 µM | 9.17 µM | 21.8 µM | 8.8 µM | 17.4 µM
CS(=O)(=O)c1ccc(-c2cnc(NCc3ccco3)n3cnnc23)cc1 | > 100 µM | > 100 µM | 53.3 µM | > 100 µM | 28.8 µM | > 100 µM | > 100 µM | > 100 µM | > 100 µM | > 100 µM | > 100 µM | > 100 µM | 39.7 µM | > 100 µM | 54.5 µM | > 100 µM | 27.5 µM | > 100 µM | > 100 µM | > 100 µM
Nc1nc(-c2ccc3ccccc3c2)cc(-c2cc(-c3ccc4ccccc4c3)nc(N)n2)n1 | – | > 100 µM | – | > 100 µM | – | > 100 µM | – | > 100 µM | – | > 100 µM | – | > 100 µM | – | > 100 µM | – | > 100 µM | – | > 100 µM | – | > 100 µM
CCN(CC)CCNC(=O)C(Cl)=C1C(Cl)=C(Cl)C(Cl)=C1Cl | 5.44 µM | 26.5 µM | 3.02 µM | 10.8 µM | 3.49 µM | 12.2 µM | 4.03 µM | 49.8 µM | 2.78 µM | 12.7 µM | 3.21 µM | > 100 µM | 3.35 µM | 7.06 µM | 2.24 µM | 6.54 µM | 11.9 µM | 47.3 µM | 3.07 µM | > 100 µM
Cc1nc2cc(Nc3nc(Nc4ccc(F)cc4)nc(N4CCCC4)n3)ccc2n1Cc1ccccc1 | 2.2 µM | 5.31 µM | 1.86 µM | 4.55 µM | 1.93 µM | 3.89 µM | 1.84 µM | 3.45 µM | 1.88 µM | 3.99 µM | 2.18 µM | 5.2 µM | 2.58 µM | 5.3 µM | 1.62 µM | 3.09 µM | 1.61 µM | 3.17 µM | 1.89 µM | 3.37 µM
